We go through 21 molecules from patent US12215123B2, “Cordycepin-based derivatized compound with anti-tumor effect” (NANJING TECH UNIVERSITY, priority 2022, dated 2025).

Assay type in all cases: cell-based
Assay [1] concerns gastric cancer cell line BGC-823. Description: MTT proliferation, gastric cancer cell line BGC-823. Conditions: MTT, 72 hours, BGC-823, read-out: IC50 (μM) in gastric cancer cells, BGC-823. Here is the method: (§1) The method for determining inhibitory activities of the compounds on the proliferation of tumor cells by an MTT method is as follows: a bottle of cells in a good state in an exponential growth phase is added with 0.25% trypsin digestive juice, the digestion makes adherent cells fall off, with 2 to 4×10^4 cells/mL, and a cell suspension is prepared. The cell suspension is inoculated on a 96-well plate, with 90 μL/well, and cultured in a constant-temperature CO2 incubator for 24 hours. The prepared compounds are added for testing, with 10 μL/well, and cultured for 72 hours. An MTT reagent is added into a 96-well plate, with 10 μL/well, and reacts in an incubator for 4 hours to absorb a supernatant, and then dimethyl sulfoxide is added, with 100 μL/well. After a crystal is dissolved, an absorbance of each well at a wavelength of 570 nm is measured by an enzyme-linked immunosorbent assay instrument, and a cell inhibition rate is calculated. An S curve is made with a compound concentration and a corresponding inhibition rate. Therefore, IC50 of a corresponding compound is obtained.
(§2) Anti-tumor dose-effect relationship curves of the cordycepin and 40 compounds prepared in gastric cancer cell lines AGS and BGC-823 were analyzed by an MTT experimental method.

Assay [2] has as its system gastric cancer cell line AGS. Briefly: MTT proliferation, gastric cancer cell line AGS. Conditions: MTT, 72 hours, AGS; read-out: IC50 (μM) in gastric cancer cells, AGS. The protocol:
as §1, §2

The test system of assay [3] is small cell lung cancer cell line H1048. Briefly: MTT proliferation, small cell lung cancer cell line H1048. The note with it: MTT, 72 hours, H1048, read-out: IC50 (μM) of compounds in small cell lung cancer cells, H1048. Here is the method:
as §1
(§3) Anti-tumor dose-effect relationship curves of cordycepin and compounds 1, 2, 4, 5, 7, 8, 10, 12, 16, 18, 21, 23, 24, 35 and 38 in small cell lung cancer cell lines H1048, H446 and H69 were analyzed by an MTT experimental method.

In assay [4] the test system is small cell lung cancer cell line H446. Description: MTT proliferation, small cell lung cancer cell line H446. Conditions: MTT; for IC50: 72 hours, H446, read-out: IC50 (μM) of compounds in small cell lung cancer cells, H446. Here is the method: as §1, §3
In assay [5] the test system is small cell lung cancer cell line H69. Description: MTT proliferation, small cell lung cancer cell line H69. Conditions: MTT, 72 hours, H69; read-out: IC50 (μM) of compounds in small cell lung cancer cells, H69. Here is the method: as §1, §3

Structures can show the parent of a compound that is named as a salt. Where two headings read alike, the source gives them in different places.

What is called IC50 is the point on the concentration scale where inhibition reaches its midpoint. Take `Nc1ncnc2c1ncn2[C@@H]1O[C@H](COP(=O)(O)O)[C@H](F)C1O` (stereo partly shown) [Compound 15, (5-(6-amino-9H-purine-9-yl)-3-fluoro-4-hydroxytetrahydrofuran-2-yl)dihydromethyl phosphate]: the IC50 in assay [1] (Homo sapiens) is 20.7 µM; in assay [2] it was 18.4 µM.

In the case of `O=C(Nc1ncnc2c1ncn2[C@@H]1O[C@H](CO)CC1O)c1ccncc1` (stereo partly shown) [Compound 12], the IC50 in assay [1] (Homo sapiens) was determined as 1.34 µM; in assay [3] (Homo sapiens, NCI-H1048, 72 h), 22.2 µM; in assay [2] it was 1.23 µM; in assay [4] (Homo sapiens, NCI-H446, 72 h), 18.1 µM; in assay [5] it was 19.5 µM.

Consider `CC(C)C(N)C(=O)OC1C[C@@H](COP(=O)(O)O)O[C@H]1n1cnc2c(N)ncnc21` (stereo partly shown) [Compound 30, 2-(6-amino-9H-purin-9-yl)-5-(phosphonoxy)methyl)tetrahydrofuran-3-yl valine salt], for which the results for the IC50 in assay [1] (Homo sapiens) and in assay [2] were 64.2 µM and 75.4 µM, respectively.

“N-(2-fluoro-3-hydroxy-5-(hydroxymethyl)tetrahydrofuran-2-yl)-9H-purine-6-yl)octadecylamine [Compound 21]”: the IC50 turned out to be 4.38 µM in assay [1]; 6.38 µM in assay [3]; 2.46 µM in assay [2]; 4.58 µM in assay [4]; 2.95 µM in assay [5].

Consider `CC(C)C(N)C(=O)OC1C[C@@H](COP(=O)(O)O)O[C@H]1n1cnc2c(NC(=O)c3ccncc3)ncnc21` (stereo partly shown) [Compound 31, 2-(6-(isonicotinamide)-9H-purin-9-yl)-5-(phosphonyl)methyl)tetrahydrofuran-3-yl valine salt], for which the IC50 in assay [1] (Homo sapiens) came to 33.6 µM; in assay [2], 41.2 µM.

Turning to `Nc1ncnc2c1ncn2[C@@H]1O[C@H](COCCO)CC1O` (stereo partly shown) [Compound 1], the IC50 in assay [1] is 64.4 µM; in assay [3] it was 27.4 µM; in assay [2], 81.7 µM; in assay [4], 23.8 µM; in assay [5], 20.6 µM.

Turning to `COC(=O)C(C)NP(=O)(Oc1ccccc1)OC1C[C@@H](CO)O[C@H]1n1cnc2c(N)ncnc21` (stereo partly shown) [Compound 33, methyl(((2-(6-amino-9H-purin-9-yl)-5-(hydroxymethyl)tetrahydrofuran-3-yl)oxy)(phenoxy)phosphoryl)alanine salt], the IC50 came to 29.5 µM in assay [1] and 36.5 µM in assay [2].

As for `CC(C)C(N)C(=O)OC1C[C@@H](CO)O[C@H]1n1cnc2c(N)ncnc21` (stereo partly shown) [Compound 29, 2-(6-amino-9H-purin-9-yl)-5-(hydroxymethyl)tetrahydrofuran-3-yl valine salt], the concentration for half-maximal inhibition (IC50) in assay [1] (Homo sapiens) turned out to be 41.4 µM; in assay [2], 32.5 µM.

Turning to “N-(4-chloro-3-hydroxy-5-(hydroxymethyl)tetrahydrofuran-2-yl)-9H-purine-6-yl)octadecylamine [Compound 22]”, the IC50 amounted to 53.7 µM in assay [1] and 45 µM in assay [2].

Consider `Nc1nc(/C=C/Br)nc2c1ncn2[C@@H]1O[C@H](COP(=O)(O)O)CC1O` (stereo partly shown) [Compound 38, (5-(6-amino-2-((E)-2-bromocarbonyl)-9H-purine-9-yl)-4-hydroxytetrahydrofuran-2-yl)dihydromethyl phosphate], for which the IC50 in assay [1] (Homo sapiens) stood at 104 µM; in assay [3] (Homo sapiens, NCI-H1048, 72 h), 1.37 µM; in assay [2] it was 134 µM; in assay [4] (Homo sapiens, NCI-H446, 72 h), 0.97 µM; in assay [5], 1.25 µM. Moreover, the “killing effect on the three lines of cells in vitro” value in assay [4] (stated in words for all three lines H1048, H446 and H69) is “strong killing effect”.

As to “N-(3-hydroxy-5-(hydroxymethyl)tetrahydrofuran-2-yl)-9H-purine-6-yl)octadecylamine [Compound 10]”, the IC50 in assay [1] stood at 82.4 µM; in assay [3] it was 10.4 µM; in assay [2], 136 µM; in assay [4] it was 12.1 µM; in assay [5] it was 9.48 µM.

For the molecule `CC(C)(C)C(=O)OCOP(=O)(COC[C@@H]1CC(O)[C@H](n2cnc3c(N)nc(F)nc32)O1)OCOC(=O)C(C)(C)C` (stereo partly shown) [Compound 17], the IC50 in assay [1] (Homo sapiens) was 2.39 µM; in assay [2], 1.32 µM.

With “isopropyl((((3-azide-4-hydroxy-5-(6-(isoniazid)-9H-purin-9-yl)tetrahydrofuran-2-yl)methoxy)methyl)(phenoxy)phosphoryl)alanine ester [Compound 28]”, the values for the IC50 in assay [1] and in assay [2] were 5.42 µM and 3.47 µM, respectively.

As for `Nc1ncnc2c1ncn2[C@@H]1O[C@H](COCP(=O)(O)O)CC1O` (stereo partly shown) [Compound 3], the IC50 in assay [1] (Homo sapiens) was 61.4 µM; in assay [2], 86.7 µM.

Turning to `CC(C)[C@H](N)C(=O)OCC(CO)OCC1CC(O)C(n2cnc3c(N)ncnc32)O1` (stereo partly shown) [Compound 8, 2-(-5-(6-amino-9H-purin-9-yl)-4-hydroxytetrahydrofuran-2-yl)methoxy)-3-hydroxypropyl valine salt], the half-maximal inhibitory concentration (IC50) in assay [1] turned out to be 18.8 µM; in assay [3] it was 14.5 µM; in assay [2] it was 27.8 µM; in assay [4], 10.5 µM; in assay [5], 14.8 µM.

As for `Nc1nc(S)nc2c1ncn2[C@@H]1O[C@H](COP(=O)(O)O)CC1O` (stereo partly shown) [Compound 14, (5-(6-amino-2-mercapto-9H-purine-9-yl)-4-hydroxytetrahydrofuran-2-yl)dihydromethyl phosphate], the IC50 stood at 18.6 µM in assay [1] (Homo sapiens) and 12.9 µM in assay [2].

With `CC(C)(C)C(=O)OCOP(=O)(COC[C@@H]1CC(O)[C@H](n2cnc3c(NC(=O)c4ccncc4)ncnc32)O1)OCOC(=O)C(C)(C)C` (stereo partly shown) [Compound 23], the IC50 was 1.31 µM in assay [1] (Homo sapiens); 17.4 µM in assay [3] (Homo sapiens, NCI-H1048, 72 h); 0.89 µM in assay [2]; 16.4 µM in assay [4] (Homo sapiens, NCI-H446, 72 h); 20.2 µM in assay [5].

On to `CC(C)COP(=O)(OCC(C)C)OC[C@@H]1CC(O)[C@H](n2cnc3c(N)ncnc32)O1` (stereo partly shown) [Compound 4, (5-(6-amino-9H-purine-9-yl)-4-hydroxytetrahydrofuran-2-yl)diisobutyl methylphosphate], for which the IC50 in assay [1] (Homo sapiens) amounted to 86.2 µM; in assay [3] (Homo sapiens, NCI-H1048, 72 h), 42.1 µM; in assay [2], 64.3 µM; in assay [4] (Homo sapiens, NCI-H446, 72 h) it was 54.3 µM; in assay [5], 43.2 µM.

With `CC(C)(C)C(=O)OCOP(=O)(COC[C@H]1O[C@@H](n2cnc3c(N)ncnc32)C(O)[C@H]1N=[N+]=[N-])OCOC(=O)C(C)(C)C` (stereo partly shown) [Compound 26, (((((5-(6-amino-9H-purine-9-yl)-3-azide-4-hydroxytetrahydrofuran-2-yl)methoxy)methyl)phosphoryl)bis(oxy))bis(methylene)bis(2,2-dimethylpropionic acid)], the IC50 in assay [1] (Homo sapiens) amounted to 46.6 µM; in assay [2], 57.4 µM.

Consider `CCCCCOC1CC(COCP(=O)(O)O)OC1n1cnc2c(NC(=O)c3ccncc3)ncnc21` (stereo not shown) [Compound 32, (((5-(6-(isonicotinamide)-9H-purine-9-yl)-4-(pentoxy)tetrahydrofuran-2-yl)methoxy)methyl)phosphonic acid], for which the IC50 was 19.8 µM in assay [1] and 23 µM in assay [2].

In the case of `Nc1ncnc2c1ncn2C1OC(COC2CC(CO)C(O)C2O)CC1O` (stereo not shown) [Compound 40, 3-((5-(6-amino-9H-purin-9-yl)-4-hydroxytetrahydrofuran-2-yl)methoxy)-5-(hydroxymethyl)cyclopentane-1,2-diol], the IC50 in assay [1] (Homo sapiens) was found to be 189 µM; in assay [2], 164 µM.
